Reference: paper PMC9182490, “N-Glucosylation in Corynebacterium glutamicum with YdhE from Bacillus lichenformis” (Molecules, 2022)

Target: T1, YdhE (CO-YdhE) (Bacillus licheniformis, UniProt Q62XT4)
T1 construct: 45 kDa band on SDS-PAGE; not purified
T1 sequence (Q62XT4 1-404): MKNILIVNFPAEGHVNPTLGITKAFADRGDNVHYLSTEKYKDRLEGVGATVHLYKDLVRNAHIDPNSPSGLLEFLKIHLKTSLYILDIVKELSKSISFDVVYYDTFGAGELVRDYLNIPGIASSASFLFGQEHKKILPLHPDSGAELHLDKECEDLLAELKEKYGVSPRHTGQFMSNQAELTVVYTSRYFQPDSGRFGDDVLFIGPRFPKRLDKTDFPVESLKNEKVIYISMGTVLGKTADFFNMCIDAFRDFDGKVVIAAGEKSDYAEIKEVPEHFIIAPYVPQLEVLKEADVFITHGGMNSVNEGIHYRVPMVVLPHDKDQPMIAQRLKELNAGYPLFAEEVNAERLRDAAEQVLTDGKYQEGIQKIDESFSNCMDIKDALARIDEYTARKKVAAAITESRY
Assay: whole-cell N-glucosylation, HPLC-PDA and HR-QTOF ESI/MS, product NMR
Format: cell-based, Corynebacterium glutamicum
Conditions: C. glutamicum harboring pSKSM-YdhE; glucose as sugar source, UDP-sugar donor made by host; 2 mM substrate, 37 °C; product is N-beta-D-glucopyranoside

## CCCCOC(=O)c1ccc(N)cc1 [compound 2, butyl-4-aminobenzoate]
  whole-cell N-glucosylation, HPLC-PDA and HR-QTOF ESI/MS, product NMR: confirmed the glucosylation of butyl-4-aminobenzoate
